Results on 2 compounds are retold here after PMC4059507 (Archives of biochemistry and biophysics, 2013).

For assay [1], the target named is T1, UGT1A9 (Homo sapiens, UniProt O60656).
T1 sequence (O60656 26-530): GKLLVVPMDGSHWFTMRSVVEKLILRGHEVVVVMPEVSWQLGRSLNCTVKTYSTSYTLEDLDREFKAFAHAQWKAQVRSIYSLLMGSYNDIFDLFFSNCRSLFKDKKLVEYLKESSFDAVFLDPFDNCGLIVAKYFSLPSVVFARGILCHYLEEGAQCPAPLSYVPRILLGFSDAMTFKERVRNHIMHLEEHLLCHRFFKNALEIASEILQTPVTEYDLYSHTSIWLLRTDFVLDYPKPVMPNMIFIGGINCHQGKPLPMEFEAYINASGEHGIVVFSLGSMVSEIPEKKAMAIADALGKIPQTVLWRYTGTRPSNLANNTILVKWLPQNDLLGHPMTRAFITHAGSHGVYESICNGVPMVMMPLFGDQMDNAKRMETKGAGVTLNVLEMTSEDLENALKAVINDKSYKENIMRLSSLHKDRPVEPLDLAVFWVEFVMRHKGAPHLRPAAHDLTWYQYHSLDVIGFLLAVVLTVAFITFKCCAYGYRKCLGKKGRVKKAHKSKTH
Particulars: substrate inhibition model, propofol glucuronidation.

The next assay has as its target T2, UGT2B7 (Homo sapiens, UniProt P16662).
T2 sequence (P16662 24-529): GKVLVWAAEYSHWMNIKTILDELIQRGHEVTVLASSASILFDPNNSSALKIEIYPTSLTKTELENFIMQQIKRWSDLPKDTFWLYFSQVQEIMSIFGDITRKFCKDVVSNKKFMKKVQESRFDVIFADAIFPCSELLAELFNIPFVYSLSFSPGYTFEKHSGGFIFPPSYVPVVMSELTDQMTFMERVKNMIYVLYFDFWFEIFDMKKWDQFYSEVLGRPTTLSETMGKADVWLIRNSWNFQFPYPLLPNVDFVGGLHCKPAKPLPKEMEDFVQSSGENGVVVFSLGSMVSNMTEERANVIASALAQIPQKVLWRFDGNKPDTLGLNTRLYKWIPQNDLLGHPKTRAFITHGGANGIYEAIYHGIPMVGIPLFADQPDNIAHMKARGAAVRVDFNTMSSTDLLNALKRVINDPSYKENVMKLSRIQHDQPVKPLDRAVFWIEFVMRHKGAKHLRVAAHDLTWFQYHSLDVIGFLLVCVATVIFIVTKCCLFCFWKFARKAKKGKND
Particulars: data not shown.

Assay [2] concerns the target T1, UGT1A9.

Like-named read-outs stand apart in the source and are kept apart here.

Regarding `CC(C)c1cccc(C(C)C)c1O` [propofol], the Ki at UGT1A9 [1] (human hepatocytes treated with UGT1A9 siRNA) stood at 448 ± 203 µM; at UGT1A9 [1] (human hepatocytes treated with UGT2B7 siRNA), 199 ± 88.9 µM; at UGT1A9 [1] (human hepatocytes, OPTI Only), 362 ± 31.3 µM; on UGT1A9 [1] (human hepatocytes, TR Only), 521 ± 46.3 µM.

For propofol glucuronide, the “inhibition of UGT2B7-catalyzed morphine glucuronidation” value against UGT2B7 was “No inhibition”. Besides, at UGT1A9 [2], the UGT1A9 activity remained result is “greater than 60%” and the “inhibition of 2,6-dimethylphenol glucuronidation” value is “only weak inhibition”.
